Test results: patent EP0626016B1, “[…] […]” (BRITISH TECHNOLOGY GROUP LIMITED, priority 1992, dated 1993)

What was measured:
Type in all cases: biochemical, horseradish
[1] = molecular target: T1, HRP (Armoracia rusticana, UniProt P00433); assay: Enhanced chemiluminescent anti-oxidant assay using PBBA (Example 6)
T1 construct: purchased Sigma Chemical Co
T1 sequence (P00433 31-338): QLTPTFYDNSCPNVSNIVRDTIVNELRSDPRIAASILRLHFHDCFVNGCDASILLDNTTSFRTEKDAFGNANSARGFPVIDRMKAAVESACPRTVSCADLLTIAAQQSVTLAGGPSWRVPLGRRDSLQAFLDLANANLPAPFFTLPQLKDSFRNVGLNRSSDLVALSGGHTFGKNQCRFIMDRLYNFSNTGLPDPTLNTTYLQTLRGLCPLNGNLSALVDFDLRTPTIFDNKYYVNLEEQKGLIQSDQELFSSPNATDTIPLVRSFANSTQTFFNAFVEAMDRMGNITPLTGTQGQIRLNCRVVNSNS
Experimental: The luminol-peroxide reagent (100µl), PBBA (40µl, 1:100 dilution of 1 mg/ml) and HRP (10µl, 1:50,000 dilution of 1mg/ml stock) were mixed together and the light emission measured for 25 minutes. A sample of human serum (2µl, 1:10 dilution in 0.1 mol/l Tris buffer, pH 8.6) was added and the light emission measured for a further 75 minutes.

[2] = molecular target: T1, HRP; assay: Effect of fixed PBBA on light output with varying amounts of HRP (Example 1, part 2); details: for Signal (with PBBA): 40µl of PBBA 0.01mg/ml, after 5 minutes; for Signal: Background ratio: with PBBA
Experimental: The above experiment was repeated this time keeping the amount of PBBA enhancer fixed and varying the amount of HRP. The reagents used were 100µl of luminol-hydrogen peroxide, either (a) 40µl of PBBA (0.01mg/ml in 0.lmol/l Tris buffer, pH 8.6) or (b) as a control, 40µl of Tris buffer (0.1mol/l, pH 8.6) and various amounts of HRP (range 5µl to 40µl of 1:50,000 dilution of a lmg/ml stock solution).
The reagents were mixed and light output recorded after 5 minutes on a Berthold Biolumat LB9500C. […] An improved signal:background ratio is shown by comparing results with HRP present with the zero HRP results.

[3] = tested on: HRP Type VIII; assay: PBBA enhancement with different peroxidase enzymes (Example 4)
Experimental: Stock solutions (1mg/ml in 0.1mol/l Tris buffer, pH 8.6) of horseradish peroxidase Type VII, Type VIII and Arthromyces ramosus peroxidase (Sigma) were prepared. The luminol-hydrogen peroxide reagent was prepared as described previously. Luminol-hydrogen peroxide reagent (100µl, 1:10 dilution), either 40µl of PBBA (0.01mg/ml in 0.1mol/l Tris buffer, pH 8.6) or as a control, 40µl of Tris buffer (0.1mol/l, pH 8.6), and 10µl of HRP Type VII (1:50,000 dilution, 2ng) were added to a cuvette. The reagents were mixed and the light emission was recorded after 5 minutes using a Berthold Biolumat LB9500C.
The above experiment was repeated and the HRP Type VII was replaced by HRP Type VIII (2ng) or Arthromyces ramosus peroxidase (20pg).

Compound: OB(O)c1ccc(Br)cc1 [PBBA, para-bromophenylboronic acid]
- Light units ([1]; Time 0 minutes, before serum): 5
- Light units ([1]; Time 10 minutes, before serum): 16
- Light units ([1]; Time 20 minutes, before serum): 68
- Light units ([1]; Time 25 minutes, serum added): 88
- Light units ([1]; Time 26 minutes, after human serum added): 3
- Light units ([1]; Time 30 minutes, after human serum added): 3
- Light units ([1]; Time 50 minutes, after human serum added): 5
- Light units ([1]; Time 60 minutes, after human serum added): 15
- Light units ([1]; Time 70 minutes, after human serum added): 49
- Light units ([1]; Time 80 minutes, after human serum added): 60
- Light units ([1]; Time 90 minutes, after human serum added): 81
- Light units ([1]; Time 100 minutes, after human serum added): 90
- lag after which the light emission returns to its original level ([1]; after addition of human serum (2µl, 1:10 dilution)): 34 min
- Signal (with PBBA) ([2]; HRP 0 pg): 9,125
- Signal (with PBBA) ([2]; HRP 100 pg): 15,861
- Signal: Background ratio ([2]; HRP 100 pg): 1.7
- Signal (with PBBA) ([2]; HRP 200 pg): 22,895
- Signal: Background ratio ([2]; HRP 200 pg): 2.5
- Signal (with PBBA) ([2]; HRP 400 pg): 38,495
- Signal: Background ratio ([2]; HRP 400 pg): 4.2
- Signal (with PBBA) ([2]; HRP 600 pg): 61,491
- Signal: Background ratio ([2]; HRP 600 pg): 6.7
- Signal (with PBBA) ([2]; HRP 800 pg): 105,972
- Signal: Background ratio ([2]; HRP 800 pg): 11.6
- light output of the chemiluminescent reaction ([2]; at all concentrations tested, result in words): increased the light output
- Signal Reagent with PBBA ([3]; HRP Type VIII 2ng, 40µl of PBBA 0.01mg/ml, after 5 minutes): 156,204
- Signal: Background ([3]; HRP Type VIII, with PBBA): 5.6
